# Laboratory results from the Kinase Knowledgebase extract (Sharma et al. 2016).
# Key:
# PIK3CG (human) = PIK3CG (human) (UniProt P48736); assay: Enzyme Assay
# PIK3CA (human) = PIK3CA (human) (UniProt P42336); assay: Enzyme Assay
# PIK3CD (Human) [1] = biological target: PIK3CD (Human) (UniProt O00329); assay: Enzyme Assay
# PIK3CB (Human) = PIK3CB (Human) (UniProt P42338); assay: Enzyme Assay
# PIK3CD (Human) [2] = biological target: PIK3CD (Human) (UniProt O00329); assay: Cell-Based Assay; conditions: b cells
# PIK3CG (human), sequence (P48736 whole entry, looked up): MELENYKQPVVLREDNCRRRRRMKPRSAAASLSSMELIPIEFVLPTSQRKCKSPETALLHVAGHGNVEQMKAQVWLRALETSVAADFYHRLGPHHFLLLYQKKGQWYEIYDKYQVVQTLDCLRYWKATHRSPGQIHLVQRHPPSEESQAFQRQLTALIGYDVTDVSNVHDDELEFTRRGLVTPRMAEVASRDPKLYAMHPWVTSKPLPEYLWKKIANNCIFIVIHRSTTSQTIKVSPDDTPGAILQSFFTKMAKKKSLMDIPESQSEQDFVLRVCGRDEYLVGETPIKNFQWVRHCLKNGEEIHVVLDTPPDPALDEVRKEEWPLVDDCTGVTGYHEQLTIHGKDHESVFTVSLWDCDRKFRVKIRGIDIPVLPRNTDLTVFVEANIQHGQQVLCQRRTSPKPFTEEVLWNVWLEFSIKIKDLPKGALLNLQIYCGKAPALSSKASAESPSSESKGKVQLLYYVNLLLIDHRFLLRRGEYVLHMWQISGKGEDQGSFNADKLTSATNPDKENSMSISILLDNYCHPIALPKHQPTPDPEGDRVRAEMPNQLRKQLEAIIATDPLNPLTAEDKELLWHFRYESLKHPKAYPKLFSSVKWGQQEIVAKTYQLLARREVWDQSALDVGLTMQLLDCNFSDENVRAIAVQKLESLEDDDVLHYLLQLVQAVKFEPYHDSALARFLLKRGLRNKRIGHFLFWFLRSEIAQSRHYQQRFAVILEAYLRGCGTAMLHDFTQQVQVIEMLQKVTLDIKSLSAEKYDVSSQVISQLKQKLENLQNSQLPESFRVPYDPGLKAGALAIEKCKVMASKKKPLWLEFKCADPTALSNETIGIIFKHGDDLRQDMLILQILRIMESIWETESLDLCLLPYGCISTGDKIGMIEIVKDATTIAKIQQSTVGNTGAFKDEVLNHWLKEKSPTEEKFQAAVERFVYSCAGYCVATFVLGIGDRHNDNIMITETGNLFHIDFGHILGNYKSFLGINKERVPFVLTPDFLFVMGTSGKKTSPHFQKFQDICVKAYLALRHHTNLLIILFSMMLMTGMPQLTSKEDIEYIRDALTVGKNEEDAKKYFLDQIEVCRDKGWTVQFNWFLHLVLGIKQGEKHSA
# PIK3CB (Human), sequence (P42338 whole entry, looked up): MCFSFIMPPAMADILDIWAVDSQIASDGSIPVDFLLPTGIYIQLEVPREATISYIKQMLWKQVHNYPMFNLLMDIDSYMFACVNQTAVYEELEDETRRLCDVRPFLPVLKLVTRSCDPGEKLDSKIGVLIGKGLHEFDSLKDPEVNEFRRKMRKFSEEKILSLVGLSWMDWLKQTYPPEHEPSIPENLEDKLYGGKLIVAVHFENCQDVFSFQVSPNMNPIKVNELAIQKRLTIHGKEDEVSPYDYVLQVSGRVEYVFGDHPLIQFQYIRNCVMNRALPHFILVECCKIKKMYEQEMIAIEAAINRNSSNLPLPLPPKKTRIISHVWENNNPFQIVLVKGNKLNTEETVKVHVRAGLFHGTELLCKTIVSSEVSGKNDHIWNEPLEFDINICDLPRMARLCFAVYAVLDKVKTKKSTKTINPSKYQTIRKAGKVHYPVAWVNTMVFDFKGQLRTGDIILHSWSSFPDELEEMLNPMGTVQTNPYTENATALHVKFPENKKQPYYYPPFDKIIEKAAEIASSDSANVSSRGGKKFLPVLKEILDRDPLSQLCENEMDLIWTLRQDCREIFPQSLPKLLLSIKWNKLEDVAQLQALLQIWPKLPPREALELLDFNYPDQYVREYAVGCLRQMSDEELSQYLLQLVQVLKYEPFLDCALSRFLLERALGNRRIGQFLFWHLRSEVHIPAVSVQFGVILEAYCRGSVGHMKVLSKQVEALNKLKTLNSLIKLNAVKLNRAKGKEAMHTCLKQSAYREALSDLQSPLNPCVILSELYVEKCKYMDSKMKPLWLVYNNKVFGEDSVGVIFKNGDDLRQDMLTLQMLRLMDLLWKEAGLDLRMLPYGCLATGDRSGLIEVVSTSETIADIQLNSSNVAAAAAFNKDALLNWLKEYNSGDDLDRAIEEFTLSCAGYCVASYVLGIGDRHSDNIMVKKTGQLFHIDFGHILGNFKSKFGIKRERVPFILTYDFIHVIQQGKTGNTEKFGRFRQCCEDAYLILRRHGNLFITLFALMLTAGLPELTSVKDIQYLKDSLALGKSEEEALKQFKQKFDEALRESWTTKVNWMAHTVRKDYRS
# PIK3CA (human), sequence (P42336 whole entry, looked up): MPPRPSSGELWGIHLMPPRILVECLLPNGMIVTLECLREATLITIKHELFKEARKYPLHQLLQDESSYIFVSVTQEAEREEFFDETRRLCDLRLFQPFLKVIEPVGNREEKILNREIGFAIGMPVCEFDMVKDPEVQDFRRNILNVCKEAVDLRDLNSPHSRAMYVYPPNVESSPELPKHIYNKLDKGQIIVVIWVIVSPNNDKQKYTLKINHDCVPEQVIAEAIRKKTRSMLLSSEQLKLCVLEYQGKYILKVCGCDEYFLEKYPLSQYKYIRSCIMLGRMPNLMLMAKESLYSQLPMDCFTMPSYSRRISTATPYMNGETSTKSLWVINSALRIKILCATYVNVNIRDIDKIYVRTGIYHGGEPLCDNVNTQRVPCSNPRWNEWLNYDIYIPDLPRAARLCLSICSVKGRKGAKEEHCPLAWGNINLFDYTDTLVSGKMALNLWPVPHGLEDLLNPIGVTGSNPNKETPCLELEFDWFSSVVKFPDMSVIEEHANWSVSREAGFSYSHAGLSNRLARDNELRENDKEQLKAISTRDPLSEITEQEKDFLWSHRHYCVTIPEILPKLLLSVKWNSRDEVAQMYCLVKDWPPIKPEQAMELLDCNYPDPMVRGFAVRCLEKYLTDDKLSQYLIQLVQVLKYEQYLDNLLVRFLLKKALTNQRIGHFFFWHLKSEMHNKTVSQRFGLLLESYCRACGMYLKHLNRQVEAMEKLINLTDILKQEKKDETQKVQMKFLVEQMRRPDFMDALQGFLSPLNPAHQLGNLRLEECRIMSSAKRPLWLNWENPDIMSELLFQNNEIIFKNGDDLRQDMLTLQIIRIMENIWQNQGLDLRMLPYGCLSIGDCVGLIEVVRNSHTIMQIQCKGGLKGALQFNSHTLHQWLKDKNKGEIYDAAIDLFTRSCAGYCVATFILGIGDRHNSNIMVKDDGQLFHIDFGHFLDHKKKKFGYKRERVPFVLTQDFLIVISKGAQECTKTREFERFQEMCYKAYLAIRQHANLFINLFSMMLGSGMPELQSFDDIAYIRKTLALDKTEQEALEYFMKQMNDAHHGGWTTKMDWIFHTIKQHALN
# PIK3CD (Human), sequence (O00329 whole entry, looked up): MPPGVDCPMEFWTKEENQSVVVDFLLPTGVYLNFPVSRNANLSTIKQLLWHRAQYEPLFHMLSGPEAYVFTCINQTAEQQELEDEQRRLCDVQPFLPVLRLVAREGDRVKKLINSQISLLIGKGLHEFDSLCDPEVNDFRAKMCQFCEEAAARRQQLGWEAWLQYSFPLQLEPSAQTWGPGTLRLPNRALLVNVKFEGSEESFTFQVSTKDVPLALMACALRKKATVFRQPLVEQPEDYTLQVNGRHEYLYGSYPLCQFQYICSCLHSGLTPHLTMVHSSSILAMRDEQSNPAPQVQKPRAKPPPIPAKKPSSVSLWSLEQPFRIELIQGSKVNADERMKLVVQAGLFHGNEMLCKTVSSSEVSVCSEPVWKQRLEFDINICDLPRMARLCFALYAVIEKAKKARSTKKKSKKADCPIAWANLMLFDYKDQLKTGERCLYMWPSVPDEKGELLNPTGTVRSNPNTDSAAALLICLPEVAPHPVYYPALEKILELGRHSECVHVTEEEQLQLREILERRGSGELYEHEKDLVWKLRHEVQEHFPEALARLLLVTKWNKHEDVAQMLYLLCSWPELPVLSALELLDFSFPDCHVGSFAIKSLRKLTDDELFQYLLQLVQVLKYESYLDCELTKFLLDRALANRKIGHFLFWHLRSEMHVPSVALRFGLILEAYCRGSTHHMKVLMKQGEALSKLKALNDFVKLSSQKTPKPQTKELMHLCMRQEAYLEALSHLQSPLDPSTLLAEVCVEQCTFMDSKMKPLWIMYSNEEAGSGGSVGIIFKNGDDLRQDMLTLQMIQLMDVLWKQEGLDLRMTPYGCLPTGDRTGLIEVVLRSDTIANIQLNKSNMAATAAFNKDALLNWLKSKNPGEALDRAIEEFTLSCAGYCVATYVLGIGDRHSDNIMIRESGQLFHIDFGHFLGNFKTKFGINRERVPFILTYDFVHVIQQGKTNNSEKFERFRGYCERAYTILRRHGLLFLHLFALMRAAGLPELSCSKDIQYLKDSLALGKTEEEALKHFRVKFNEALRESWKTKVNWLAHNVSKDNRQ
Compound,IC50 (PIK3CG (human)),IC50 (PIK3CA (human)),IC50 (PIK3CD (Human) [1]),IC50 (PIK3CB (Human)),IC50 (PIK3CD (Human) [2])
C[C@H](Nc1ncnc2[nH]cnc12)c1cc2cccc(F)c2nc1-c1ccccn1,1700 nM,125000 nM,29 nM,2200 nM,14 nM
Cc1ccccc1-c1nc2c(C)cccc2cc1COc1ncnc2[nH]ccc12,710 nM,> 125000 nM,38 nM,3300 nM,270 nM
Cc1ncccc1-c1nc2c(Cl)cccc2cc1[C@H](C)Nc1ncnc2[nH]cnc12,120 nM,13000 nM,18 nM,1260 nM,4.3 nM
Cc1ccccc1-c1nc2c(C)cccc2cc1CCc1ncnc2[nH]cnc12,18000 nM,> 125000 nM,3600 nM,> 12000 nM,–
Fc1cccc(-c2nc3c(Cl)cccc3cc2CNc2ncnc3[nH]cnc23)c1,840 nM,52000 nM,82 nM,3700 nM,28 nM
C[C@H](Nc1ncnc2[nH]cnc12)c1nc2ccc(F)cc2nc1-c1ccccn1,890 nM,22000 nM,24 nM,4100 nM,18 nM
COc1ccccc1-c1nc2c(C)cccc2cc1COc1ncnc2[nH]cnc12,2600 nM,> 125000 nM,44 nM,2900 nM,88 nM
Cc1ncc(F)cc1-c1nc2c(Cl)cccc2cc1[C@H](C)Nc1ncnc2[nH]cnc12,230 nM,–,18 nM,1800 nM,17 nM
Cc1ccccc1-c1nc2c(C)cccc2cc1[C@@H](C)Oc1ncnc2[nH]ccc12,22000 nM,> 125000 nM,2600 nM,7600 nM,–
Cc1nnc2ccc(Cl)cc2c1N1CC(C)(C)c2ccc(N3CCOCC3)cc21,–,–,19000 nM,–,–
Cc1ccccc1-c1nc2c(C)cccc2cc1CNc1ncnc2[nH]cnc12,290 nM,37000 nM,41 nM,2100 nM,51 nM
C[C@H](Nc1ncnc2[nH]cnc12)c1cc2cccc(C#N)c2nc1-c1ccccn1,1100 nM,62000 nM,43 nM,5200 nM,47 nM
Cc1ccccc1-n1c(CNc2nc(N)nc3[nH]cnc23)nc2cccc(C)c2c1=O,140 nM,10000 nM,25 nM,1800 nM,–
Clc1ccccc1-c1nc2c(Cl)cccc2cc1CNc1ncnc2[nH]cnc12,450 nM,46000 nM,39 nM,3900 nM,25 nM
C[C@H](Nc1ncnc2[nH]cnc12)c1nc2c(Cl)cccc2nc1-c1ccccn1,6600 nM,125000 nM,59 nM,3600 nM,21 nM
Cc1ccccc1-c1nc2c(C)cccc2cc1COc1ncnc2[nH]cnc12,580 nM,42000 nM,17 nM,1700 nM,47 nM
COc1ccccc1-c1nc2c(C)cccc2cc1CSc1ncnc2[nH]cnc12,8600 nM,53000 nM,240 nM,49000 nM,840 nM
C[C@H](Nc1ncnc2[nH]cnc12)c1cc2cccc(F)c2nc1-c1cc(F)ccc1F,560 nM,125000 nM,18 nM,1900 nM,13 nM
C[C@H](Nc1ncnc2[nH]cnc12)c1cc2cccc(Cl)c2nc1-c1ccccn1,150 nM,14000 nM,66 nM,670 nM,3.2 nM

# These reach a lower IC50 (PIK3CD (Human) [1]). Values come first.
IC50 (PIK3CG (human)),IC50 (PIK3CA (human)),IC50 (PIK3CD (Human) [1]),IC50 (PIK3CB (Human)),IC50 (PIK3CD (Human) [2]),Compound
830 nM,81000 nM,16 nM,2900 nM,15 nM,C[C@H](Nc1ncnc2[nH]cnc12)c1cc2cccc(F)c2nc1-c1cccnc1
610 nM,6900 nM,16 nM,1900 nM,–,C[C@H](Nc1ncnc2[nH]cnc12)c1cc2c(F)cc(F)cc2nc1-c1ccccn1
770 nM,47000 nM,15 nM,1100 nM,56 nM,C[C@H](Nc1ncnc2[nH]cnc12)c1cc2cccc(Cl)c2nc1-c1cccc(S(C)(=O)=O)c1
38 nM,5700 nM,12 nM,370 nM,2.4 nM,C[C@H](Nc1ncnc2[nH]cnc12)c1cc2cccc(Cl)c2nc1-c1cccc(F)c1
360 nM,9000 nM,12 nM,4500 nM,11 nM,C[C@H](Nc1ncnc2[nH]cnc12)c1cc2cccc(F)c2nc1-c1cc(F)cc(F)c1
340 nM,20000 nM,11 nM,2100 nM,6.8 nM,C[C@H](Nc1ncnc2[nH]cnc12)c1cc2ccc(F)cc2nc1-c1ccccc1S(C)(=O)=O
250 nM,–,10 nM,1100 nM,5.2 nM,C[C@H](Nc1ncnc2[nH]cnc12)c1cc2cccc(F)c2nc1-c1cccc(F)c1
160 nM,8100 nM,10 nM,1400 nM,14 nM,C[C@H](Nc1ncnc2[nH]cnc12)c1nc2cccc(Cl)c2nc1-c1cccc(F)c1
140 nM,36000 nM,8 nM,1500 nM,3.6 nM,C[C@H](Nc1ncnc2[nH]cnc12)c1cc2cccc(Cl)c2nc1-c1ccccc1Cl
93 nM,6500 nM,7.1 nM,1000 nM,4.3 nM,Cc1ccccc1-c1nc2c(C)cccc2cc1[C@H](C)Oc1ncnc2[nH]ccc12
120 nM,14000 nM,6.6 nM,1300 nM,13 nM,C[C@H](Nc1ncnc2[nH]cnc12)c1cc2ccc(F)cc2nc1-c1cccc(F)c1
440 nM,46000 nM,5.2 nM,1090 nM,12 nM,C[C@H](Nc1ncnc2[nH]cnc12)c1nc2cccc(Cl)c2nc1-c1ccccn1
67 nM,26000 nM,3.2 nM,420 nM,3.6 nM,C[C@H](Nc1ncnc2[nH]cnc12)c1cc2cccc(Cl)c2nc1-c1ccccc1F
